Reference: PubChem BioAssay AID1963964 (Molecular Pharmacology Branch, DTP, NCI, 2024)

Test system: 997726-040-R-J2-PDC tumor spheroids, viability
Test: Anticancer human tumor 997726-040-R-J2-PDC patient-derived squamous cell lung carcinoma cell line growth inhibition [PI3K]
Conditions: spheroids with HUVEC and MSC; for IC50: curve of first compound; for viability, T/C: stronger effect = lower value
Outline: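 Targeted small molecules plus PI3K inhibitors, half-log dose series from Cmax (default top 10 microM), were applied to heterotypic spheroids of cancer cells with HUVEC and MSCs. Viability indicated growth inhibition.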

[1] = second compound 0.0316 µM, first compound 0.000316 µM
[2] = second compound 0.0316 µM, first compound 0.001 µM
[3] = second compound 0.0316 µM, first compound 0.00316 µM
[4] = second compound 0.0316 µM, first compound 0.01 µM
[5] = second compound 0.0316 µM, first compound 0.0316 µM
[6] = second compound 0.0316 µM, first compound 0.1 µM
[7] = second compound 0.1 µM, first compound 0.000316 µM
[8] = second compound 0.1 µM, first compound 0.001 µM
[9] = second compound 0.1 µM, first compound 0.00316 µM
[10] = second compound 0.1 µM, first compound 0.01 µM
[11] = second compound 0.1 µM, first compound 0.0316 µM
[12] = second compound 0.1 µM, first compound 0.1 µM
[13] = second compound 0.316 µM, first compound 0.000316 µM
[14] = second compound 0.316 µM, first compound 0.001 µM
[15] = second compound 0.316 µM, first compound 0.00316 µM
[16] = second compound 0.316 µM, first compound 0.01 µM
[17] = second compound 0.316 µM, first compound 0.0316 µM
[18] = second compound 0.316 µM, first compound 0.1 µM
[19] = second compound 1 µM, first compound 0.000316 µM
[20] = second compound 1 µM, first compound 0.001 µM
[21] = second compound 1 µM, first compound 0.00316 µM
[22] = second compound 1 µM, first compound 0.01 µM
[23] = second compound 1 µM, first compound 0.0316 µM
[24] = second compound 1 µM, first compound 0.1 µM
[25] = second compound 3.16 µM, first compound 0.000316 µM
[26] = second compound 3.16 µM, first compound 0.001 µM
[27] = second compound 3.16 µM, first compound 0.00316 µM
[28] = second compound 3.16 µM, first compound 0.01 µM
[29] = second compound 3.16 µM, first compound 0.0316 µM
[30] = second compound 3.16 µM, first compound 0.1 µM
[31] = second compound 10 µM, first compound 0.000316 µM
[32] = second compound 10 µM, first compound 0.001 µM
[33] = second compound 10 µM, first compound 0.00316 µM
[34] = second compound 10 µM, first compound 0.01 µM
[35] = second compound 10 µM, first compound 0.0316 µM
[36] = second compound 10 µM, first compound 0.1 µM
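Note: spheroids exposed to compounds for seven days before readout.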

## CC(=O)c1c(C)c2cnc(Nc3ccc(N4CCNCC4)cn3)nc2n(C2CCCC2)c1=O + Cc1nc(NC(=O)N2CCCC2C(N)=O)sc1-c1ccnc(C(C)(C)C(F)(F)F)c1
Second compound 0.0316 µM
  IC50: > 100 nM
Second compound 0.1 µM
  IC50: 58.7 nM
Second compound 0.316 µM
  IC50: 19.7 nM
Second compound 1 µM
  IC50: < 0.316 nM
Second compound 3.16 µM
  IC50: < 0.316 nM
Second compound 10 µM
  IC50: < 0.316 nM
[1]
  viability, T/C: 94.4%
[2]
  viability, T/C: 90.6%
[3]
  viability, T/C: 83.3%
[4]
  viability, T/C: 72.9%
[5]
  viability, T/C: 75.5%
[6]
  viability, T/C: 51.9%
[7]
  viability, T/C: 81.5%
[8]
  viability, T/C: 74.8%
[9]
  viability, T/C: 71.9%
[10]
  viability, T/C: 65.2%
[11]
  viability, T/C: 59.5%
[12]
  viability, T/C: 43.1%
[13]
  viability, T/C: 53.4%
[14]
  viability, T/C: 59%
[15]
  viability, T/C: 52.9%
[16]
  viability, T/C: 55.7%
[17]
  viability, T/C: 46.4%
[18]
  viability, T/C: 34.8%
[19]
  viability, T/C: 41.9%
[20]
  viability, T/C: 44.1%
[21]
  viability, T/C: 40.1%
[22]
  viability, T/C: 35.5%
[23]
  viability, T/C: 29.1%
[24]
  viability, T/C: 28.4%
[25]
  viability, T/C: 29.6%
[26]
  viability, T/C: 30.5%
[27]
  viability, T/C: 26.2%
[28]
  viability, T/C: 27.7%
[29]
  viability, T/C: 27.2%
[30]
  viability, T/C: 18.6%
[31]
  viability, T/C: 19.2%
[32]
  viability, T/C: 15.7%
[33]
  viability, T/C: 13.4%
[34]
  viability, T/C: 14.9%
[35]
  viability, T/C: 11.8%
[36]
  viability, T/C: 10.5%

## CC(C)n1nc(-c2ccc3oc(N)nc3c2)c2c(N)ncnc21 + Cc1nc(NC(=O)N2CCCC2C(N)=O)sc1-c1ccnc(C(C)(C)C(F)(F)F)c1
Second compound 0.0316 µM
  IC50: 17.1 nM
Second compound 0.1 µM
  IC50: 10.7 nM
Second compound 0.316 µM
  IC50: 3.53 nM
Second compound 1 µM
  IC50: < 0.316 nM
Second compound 3.16 µM
  IC50: < 0.316 nM
Second compound 10 µM
  IC50: < 0.316 nM
[1]
  viability, T/C: 80.4%
[2]
  viability, T/C: 80%
[3]
  viability, T/C: 66.5%
[4]
  viability, T/C: 62%
[5]
  viability, T/C: 38.8%
[6]
  viability, T/C: 7.7%
[7]
  viability, T/C: 84.9%
[8]
  viability, T/C: 71.1%
[9]
  viability, T/C: 64.4%
[10]
  viability, T/C: 52.8%
[11]
  viability, T/C: 33.6%
[12]
  viability, T/C: 7.57%
[13]
  viability, T/C: 62%
[14]
  viability, T/C: 61.8%
[15]
  viability, T/C: 51.1%
[16]
  viability, T/C: 36.7%
[17]
  viability, T/C: 28.6%
[18]
  viability, T/C: 6.37%
[19]
  viability, T/C: 43.7%
[20]
  viability, T/C: 38.9%
[21]
  viability, T/C: 38.3%
[22]
  viability, T/C: 32.7%
[23]
  viability, T/C: 21.3%
[24]
  viability, T/C: 3.77%
[25]
  viability, T/C: 32.4%
[26]
  viability, T/C: 31.8%
[27]
  viability, T/C: 27.9%
[28]
  viability, T/C: 24.5%
[29]
  viability, T/C: 9.73%
[30]
  viability, T/C: 2.15%
[31]
  viability, T/C: 21%
[32]
  viability, T/C: 11.3%
[33]
  viability, T/C: 10.4%
[34]
  viability, T/C: 8.32%
[35]
  viability, T/C: 4.53%
[36]
  viability, T/C: 1.59%
